Laboratory results taken from US8729116B2, “Triazole compound having pesticidal activities” (Kumiai Chemical Industry Co., Ltd., priority 2010, dated 2014).

Experiments:
Assay type in all cases: in vivo
[1] = tested on: resistant strain two-spotted spider mite (Tetranychus urticae); experiment: Miticidal activity against adults of two-spotted spider mite (resistant strain), leaf disk spray test; settings: spray 2 mg/cm^2 on kidney bean leaf disks, female adults, two days after treatment; for Mortality (%): 100 ppm
Method: Miticidal Activity Against Adults of Two-Spotted Spider Mite (Resistant Strain) (Leaf Disk Spray Test)
(§1) A plastic cup having a capacity of 60 mL was half-filled with water, and a perforated cover was put thereon. Absorbent cotton was impregnated with water through the perforations, and two sheets of filter paper were overlaid thereon. Two leaves of kidney beans (Phaseolus vulgaris) cutout in a circular shape with a diameter of 2 cm, were put thereon, and ten female adults of resistant strain two-spotted spider mite (Tetranychus urticae) were inoculated and left to stand overnight in a constant temperature chamber at 25° C. (photoperiod conditions: light period of 16 hours/dark period of 8 hours). After removing abnormal mites and dead mites, a pesticide prepared by diluting the test compound formulated in accordance with Formulation Example 2 with a diluent such as water, as shown in Table 2 was sprayed by an automatic spraying device (2 mg/cm^2). Upon expiration of two days after the treatment, the number of dead mites was counted, and the mortality was calculated by the formula 1. The test was carried out twice.

[2] = tested on: susceptible strain two-spotted spider mite (Tetranychus urticae); experiment: Penetration/transfer activity against two-spotted spider mite (susceptible strain), soil irrigation cup test; settings: 0.0031 mg a.i./seedling, soil drench 5 mL/seedling, soybean, live mites counted after 13 days
Method: Penetration/Transfer Activity Against Two-Spotted Spider Mite (Susceptible Strain) (Soil Irrigation Cup Test)
To soybean (Glycine max) planted in a plastic cup, 35 female adults of susceptible strain two-spotted spider mite (Tetranychus urticae) were inoculated and left to stand overnight at a constant temperature chamber at 25° C. (photoperiod conditions: light period of 16 hours/dark period of 8 hours). A test pesticide prepared by diluting the test compound formulated in accordance with Formulation Example 2 to a predetermined concentration as disclosed in Table 4, was applied by soil drench treatment (5 mL/seedling). Upon expiration of 13 days, the number of live mites was counted, and the preventive value was calculated by the formula 2. The test was carried out twice.

[3] = tested on: resistant strain red mite (Panonychus citri); experiment: Miticidal activity against adults of red mite (resistant strain), leaf disk spray test; settings: spray 2 mg/cm^2 on cinnamon leaf disks, female adults, two days after treatment; for Mortality (%): 6.25 ppm
Method: Miticidal Activity Against Adults of Red Mite (Resistant Strain) (Leaf Disk Spray Test)
0.5 mass % of agar was blended to water and put into a plastic cup having a capacity of 60 mL, and two cinnamon leaf disks were put thereon and ten female adults of resistant strain red mite (Panonychus citri) were inoculated and left to stand overnight at a constant temperature chamber at 25° C. (photoperiod conditions: light period of 16 hours/dark period of 8 hours). […] Upon expiration of two days after the treatment, the number of dead mites was counted, and the mortality was calculated by the formula 1. The test was carried out twice.

[4] = tested on: susceptible strain two-spotted spider mite (Tetranychus urticae); experiment: Miticidal activity against adults of two-spotted spider mite (susceptible strain), leaf disk spray test; settings: foliar, 48 h, spray 2 mg/cm^2 on kidney bean leaf disks, female adults, two days after treatment
Method: Miticidal Activity Against Adults of Two-Spotted Spider Mite (Susceptible Strain) (Leaf Disk Spray Test)
as §1, with “of 2,” for “of 2”, “of susceptible” for “of resistant”, “hours). […]” for “hours). After removing abnormal mites and dead mites, a pesticide prepared by diluting the test compound formulated in accordance with Formulation Example 2 with a diluent such as water, as shown in Table 2 was sprayed by an automatic spraying device (2 mg/cm^2).”

Compound | mortality at 100 ppm ([1]; Tetranychus urticae, foliar, 48 h) [%] | Preventive value (%) [2] [%] | mortality at 6.25 ppm ([3]; Panonychus citri, foliar, 48 h) [%] | mortality at 3.125 ppm [4] [%] | Mortality (%) [1] [%] | Mortality (%) [3] [%] | mortality at 6.25 ppm ([4]; 6.25 ppm) [%]
Cc1cc(F)c(-n2nc(C(F)(F)F)nc2N)cc1[S+]([O-])CC(F)(F)F (racemic) [Compound No. II, 1-[2-fluoro-4-methyl-5-(2,2,2-trifluoroethylsulfinyl)phenyl]-5-amino-3-(trifluoromethyl)-1H-1,2,4-triazole, reference compound] | 16 | 0 | 36 | 8 |  |  | 
Cc1cc(F)c(-n2nc(C(F)(F)F)nc2N)cc1[S+]([O-])CC(F)(F)F (single isomer, unassigned; (-)) [Compound No. III, (−)-1-[2-fluoro-4-methyl-5-(2,2,2-trifluoroethylsulfinyl)phenyl]-5-amino-3-(trifluoromethyl)-1H-1,2,4-triazole] |  | 0 |  |  | 0 | 0 | 0
Cc1cc(F)c(-n2nc(C(F)(F)F)nc2N)cc1[S+]([O-])CC(F)(F)F (single isomer, unassigned; (+)) [Compound No. I, (+)-1-[2-fluoro-4-methyl-5-(2,2,2-trifluoroethylsulfinyl)phenyl]-5-amino-3-(trifluoromethyl)-1H-1,2,4-triazole] |  | 100 |  | 79 | 94 | 93 | 
